Data reported in patent US9382261B2, “Substituted quinazolinones as HCV inhibitors” (Janssen R&D Ireland, priority 2011, dated 2016).
pEC50: −log10 of the molar value.

Tests used:
[1] = test system: HCV subgenomic replicon genotype 1b Con1; test: HCV replicon assay, transient transfection, genotype 1b Con1 (Huh-7 lunet, luciferase readout); format: cell-based, HCV genotype 1b Con1; conditions: Hepatitis C virus, 48 h, Huh-7 lunet transiently transfected, genotype 1b Con1, two days incubation
Description: (§1) In a transient set-up, a Huh-7 lunet hepatoma cell line was transiently transfected with an autonomously replicating RNA encoding a bi-cistronic expression construct. This construct comprises a firefly luciferase reporter gene preceding the NS3-NS5B subgenomic region of HCV (genotype 1a H77 or 1b Con1). Translation of the HCV subgenomic region is mediated by an internal ribosome entry site of encephalomyocarditis virus. The construct is furthermore flanked by 5′ and 3′ untranslated regions of HCV (genotype 1a H77 or 1b Con1, respectively), which allow for replication of the RNA.
(§2) Cells were plated in 384 well plates in the presence of test and control compounds, which were added in various concentrations. Following an incubation of two days, replication of the HCV subgenomic replicon RNA was measured by assaying luciferase activity (using standard luciferase assay substrates and reagents and a Perkin Elmer ViewLux™ ultraHTS microplate imager). HCV subgenomic replicon containing cells in the control cultures have high luciferase expression in the absence of any inhibitor. The inhibitory activity of the compound was monitored, enabling a dose-response curve for each test compound. EC50 values were then calculated, which represent the amount of compound required to decrease the level of detected luciferase activity by 50%, or more specifically, to reduce the ability of the genetically linked HCV subgenomic RNA to replicate.

[2] = test system: HCV subgenomic replicon genotype 1a H77; test: HCV replicon assay, transient transfection, genotype 1a H77 (Huh-7 lunet, luciferase readout); format: cell-based, HCV genotype 1a H77; conditions: Hepatitis C virus, 48 h, Huh-7 lunet transiently transfected, genotype 1a H77, two days incubation
Description: as §1, §2

[3] = Counterscreen MT4-LTR-Luc; format: cell-based; conditions: human; counterscreen cell line MT4-LTR-Luc
Description: (§3) The in vitro antiviral activity against HCV of the compounds of formula I can be tested in a cellular HCV replicon system based on Lohmann et al. (1999) Science 285:110-113, with the further modifications described by Krieger et al. (2001) Journal of Virology 75: 4614-4624 and Lohmann et al. (2003) Journal of Virology 77: 3007-3019 for genotype 1b and by Yi et al. (2004) Journal of Virology 78: 7904-7915 for genotype 1a (incorporated herein by reference), which is further exemplified in the examples section. This model, while not a complete infection model for HCV, is widely accepted as the most robust and efficient model of autonomous HCV RNA replication currently available. It will be appreciated that it is important to distinguish between compounds that specifically interfere with HCV functions from those that exert cytotoxic or cytostatic effects in the HCV replicon model, and as a consequence cause a decrease in HCV RNA or linked reporter enzyme concentration. Assays are known in the field for the evaluation of cellular cytotoxicity based for example on the activity of mitochondrial enzymes using fluorogenic redox dyes such as resazurin. Furthermore, cellular counter screens exist for the evaluation of non-selective inhibition of linked reporter gene activity, such as firefly luciferase. Appropriate cell types can be equipped by stable transfection with a luciferase reporter gene whose expression is dependent on a constitutively active gene promoter, and such cells can be used as a counter-screen to eliminate non-selective inhibitors.
(§4) Counterscreen cell lines included a Huh-7 hepatoma cell line containing a human cytomegalovirus major immediate-early promoter-Luc construct (Huh7-CMV-Luc) and an MT4 T-cell line containing a long terminal repeat-Luc reporter (MT4-LTR-Luc).

[4] = test system: HCV replicon type 1b in Huh-Luc cells; test: HCV replicon assay, stable transfection (Huh-7 luc/neo, luciferase readout); format: cell-based, HCV type 1b; conditions: Hepatitis C virus, Huh-7, 72 h, stably transfected Huh-Luc cells, genotype 1b, three days incubation, average if tested more than once, read-out: HCV-REP-HUH7LUC_EC50
Description: The compounds of formula (I) were examined for inhibitory activity in the HCV replicon. This cellular assay is based on a bicistronic expression construct, as described by Lohmann et al. (Science (1999) 285: 110-113; Journal of Virology (2003) 77: 3007-3019) with modifications described by Krieger et al. (Journal of Virology (2001) 75: 4614-4624), and Lohmann et al. (Journal of Virology (2003) 77: 3007-3019) for genotype 1b and by Yi et al. (Journal of Virology (2004) 78: 7904-7915) for genotype 1a, in a multi-target screening strategy.
The method was as follows. The assay utilized the stably transfected cell line Huh-7 luc/neo (hereafter referred to as Huh-Luc). This cell line harbors an RNA encoding a bicistronic expression construct comprising the wild type NS3-NS5B regions of HCV type 1b translated from an Internal Ribosome Entry Site (IRES) from encephalomyocarditis virus (EMCV), preceded by a reporter portion (FfL-luciferase), and a selectable marker portion (neoR, neomycine phosphotransferase). The construct is flanked by 5′ and 3′ NTRs (non-translated regions) from HCV type 1b. Continued culture of the replicon cells in the presence of G418 (neoR) is dependent on the replication of the HCV RNA. The stably transfected replicon cells that replicate HCV RNA autonomously and to high levels, encoding inter alia luciferase, were used for screening the antiviral compounds.
The replicon cells were plated in 384 well plates in the presence of the test and control compounds which were added in various concentrations. Following an incubation of three days, HCV replication was measured by assaying luciferase activity (using standard luciferase assay substrates and reagents and a Perkin Elmer ViewLux™ ultraHTS microplate imager). Replicon cells in the control cultures have high luciferase expression in the absence of any inhibitor. The inhibitory activity of the compound was monitored on the Huh-Luc cells, enabling a dose-response curve for each test compound. EC50 values were then calculated, which represent the amount of compound required to decrease the level of detected luciferase activity by 50%, or more specifically, to reduce the ability of the genetically linked HCV replicon RNA to replicate.
Where a compound of formula (I) was tested more than once in the replicon assay, the average of all test results is given in this Table 1.

[5] = Counterscreen Huh7-CMV-Luc; format: cell-based; conditions: human; counterscreen cell line Huh7-CMV-Luc
Description: as §3, §4

Row | SMILES | pEC50 [1] | pEC50 [2] | CC50 [3] [nM] | pEC50 [4] | CC50 [5] [nM]
1 | COC(=O)N[C@H](C(=O)N1CC2(C[C@H]1c1nc3cc(-c4ccc5cc(-c6cnc([C@@H]7C[C@H]8C[C@H]8N7C(=O)[C@@H](NC(=O)OC)C(C)C)[nH]6)ccc5c4)ccc3c(=O)[nH]1)OCCCO2)C(C)C [Compound 1] | 10.54 | 9.10 | > 980 | 10.59 | > 980
2 | COC(=O)N[C@H](C(=O)N1CC2(C[C@H]1c1ncc(-c3ccc4cc(-c5ccc6c(=O)[nH]c([C@@H]7CC8(CN7C(=O)[C@@H](NC(=O)OC)C(C)C)OCCO8)nc6c5)ccc4c3)[nH]1)OCCO2)C(C)C [Compound 2] | 10.48 | 8.85 | > 980 | 10.74 | > 980
3 | COC(=O)N[C@H](C(=O)N1[C@@H]2C[C@@H]2C[C@H]1c1ncc(-c2ccc3cc(-c4ccc5c(=O)[nH]c([C@@H]6C[C@H]7C[C@H]7N6C(=O)[C@@H](NC(=O)OC)C(C)C)nc5c4)ccc3c2)[nH]1)C(C)C [Compound 3] | 10.92 | 9.80 | > 980 | 10.77 | > 980
4 | COC(=O)N[C@H](C(=O)N1CC2(C[C@H]1c1ncc(-c3ccc4cc(-c5ccc6c(=O)[nH]c([C@@H]7C[C@H]8C[C@H]8N7C(=O)[C@@H](NC(=O)OC)C(C)C)nc6c5)ccc4c3)[nH]1)OCCO2)C(C)C [Compound 4] | 10.89 | 9.99 | > 980 | 11.10 | > 980
5 | COC(=O)N[C@H](C(=O)N1CC2(C[C@H]1c1ncc(-c3ccc4cc(-c5ccc6c(=O)[nH]c([C@@H]7CCCN7C(=O)[C@@H](NC(=O)OC)C(C)C)nc6c5)ccc4c3)[nH]1)OCCO2)C(C)C [Compound 5] | 10.60 | 9.17 | > 980 | 10.60 | > 980
6 | COC(=O)N[C@H](C(=O)N1[C@@H]2C[C@@H]2C[C@H]1c1ncc(-c2ccc3cc(-c4ccc5c(=O)[nH]c([C@@H]6C[C@@H]7CCCC[C@@H]7N6C(=O)[C@@H](NC(=O)OC)C(C)C)nc5c4)ccc3c2)[nH]1)C(C)C [Compound 7] | 11.22 | 9.26 | > 980 | 11.10 | > 980
7 | COC(=O)N[C@H](C(=O)N1CC2(C[C@H]1c1ncc(-c3ccc4cc(-c5ccc6c(=O)[nH]c([C@@H]7C[C@@H]8CCCC[C@@H]8N7C(=O)[C@@H](NC(=O)OC)C(C)C)nc6c5)ccc4c3)[nH]1)OCCO2)C(C)C [Compound 9] | 11.22 | 9.67 | > 980 | 11.10 | > 980
8 | COC(=O)N[C@H](C(=O)N1CCC[C@H]1c1nc2cc(-c3ccc4cc(-c5cnc([C@@H]6C[C@H]7C[C@H]7N6C(=O)[C@@H](NC(=O)OC)C(C)C)[nH]5)ccc4c3)ccc2c(=O)[nH]1)C(C)C [Compound 10] | 11.30 | 9.47 | > 980 | 11.22 | > 980
9 | COC(=O)N[C@H](C(=O)N1[C@@H]2CC[C@@H](C2)[C@H]1c1nc2cc(-c3ccc4cc(-c5cnc([C@@H]6C[C@H]7C[C@H]7N6C(=O)[C@@H](NC(=O)OC)C(C)C)[nH]5)ccc4c3)ccc2c(=O)[nH]1)C(C)C [Compound 12] | 9.96 | 7.90 | > 980 | 9.57 | > 980
10 | COC(=O)N[C@H](C(=O)N1CC2(CC2)C[C@H]1c1ncc(-c2ccc3cc(-c4ccc5c(=O)[nH]c([C@@H]6C[C@@H]7CCCC[C@@H]7N6C(=O)[C@@H](NC(=O)OC)C(C)C)nc5c4)ccc3c2)[nH]1)C(C)C [Compound 13] | 11.05 | 9.44 | > 980 | 11.22 | > 980
11 | COC(=O)N[C@H](C(=O)N1[C@H](c2ncc(-c3ccc4cc(-c5ccc6c(=O)[nH]c([C@@H]7C[C@@H]8CCCC[C@@H]8N7C(=O)[C@@H](NC(=O)OC)C(C)C)nc6c5)ccc4c3)[nH]2)C[C@@H]2CCCC[C@@H]21)C(C)C [Compound 14] | 10.68 | 9.87 | > 980 | 10.66 | > 980
12 | COC(=O)N[C@H](C(=O)N1CCC[C@H]1c1ncc(-c2ccc3cc(-c4ccc5c(=O)[nH]c([C@@H]6C[C@@H]7CCCC[C@@H]7N6C(=O)[C@@H](NC(=O)OC)C(C)C)nc5c4)ccc3c2)[nH]1)C(C)C [Compound 15] | 11.15 | 9.30 | > 980 | 11.22 | > 980
